Measured values from ChEMBL document CHEMBL1201862, “PubChem BioAssay data set” (2004).
Activity calls are given as the source filed them.

Columns and labels:
[1] = target: T1, Heat shock factor protein 1 (Mus musculus, UniProt P38532); assay: inhibition of MG132-induced HSE-luciferase signal, confirmation, cell-based, NIH3T3, luminescence, dose retest (AID 2382); format: functional;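 note: NIH3T3 fibroblasts with HSF1-driven luciferase reporter stressed by proteasome inhibitor MG132; luminescence from HSF1-driven luciferase expression after 8 hours of MG132 stress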
T1 sequence (P38532 whole entry): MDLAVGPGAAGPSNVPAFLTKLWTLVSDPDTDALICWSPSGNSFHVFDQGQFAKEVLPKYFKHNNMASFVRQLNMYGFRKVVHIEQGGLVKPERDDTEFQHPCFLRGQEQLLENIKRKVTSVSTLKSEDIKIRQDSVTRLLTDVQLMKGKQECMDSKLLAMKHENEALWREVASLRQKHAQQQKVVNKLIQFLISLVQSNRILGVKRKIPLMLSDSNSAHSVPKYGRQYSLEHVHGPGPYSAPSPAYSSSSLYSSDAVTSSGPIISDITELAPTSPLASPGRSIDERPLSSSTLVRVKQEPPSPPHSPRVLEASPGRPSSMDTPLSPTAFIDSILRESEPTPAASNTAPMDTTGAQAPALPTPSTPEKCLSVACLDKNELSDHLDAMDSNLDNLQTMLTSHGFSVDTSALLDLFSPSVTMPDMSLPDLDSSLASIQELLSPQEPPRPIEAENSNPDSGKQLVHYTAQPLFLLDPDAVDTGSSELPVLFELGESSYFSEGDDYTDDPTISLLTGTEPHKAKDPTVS

[2] = cytotoxicity toward NIH3T3 fibroblasts, dose response, counter-screen, cell-based, ATP luminescence, mouse fibroblasts (AID 2010); format: functional;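 note: cells exposed to compound for about 90 hours before reading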
[3] = inhibitors of intracellular T. cruzi replication, confirmation, NIH3T3 host cells, beta-gal luminescence (AID 2044); format: functional, cell-based;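 note: intracellular parasites grown in NIH/3T3 mouse fibroblasts as host cells; luminescent beta-galactosidase reporter signal from transgenic T. cruzi replicating inside host cells; inhibitors lower the luminescence signal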
Cytochrome P450 3A4 = Cytochrome P450 3A4 (Homo sapiens, UniProt P08684);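 note: CYP3A4 tested as one member of a cytochrome P450 panel screen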
[4] = inhibitors of SNCA 5'UTR-driven reporter translation, confirmation, H4 neuroglioma cells, luminescence (AID 1988); format: functional, cell-based
[5] = Luminescence Cell-Based Dose Response HTS to Identify Inhibitors of 5'UTR Stem-Loop Driven Prion Protein mRNA Translation in H4 Neuroglioblastoma Cells. [Related pubchem assays: 1827 (Project Summary), 1813 (Primary HTS)]; format: functional
[6] = inhibitors of firefly luciferase expression or activity, dose response, H4 neuroglioma cells, luminescence (AID 1990); format: functional, cell-based
Cytochrome P450 2C19 = Cytochrome P450 2C19 (Homo sapiens, UniProt P33261); assay: Cytochrome panel assay with activity outcomes. Panel member name: p450-cyp2c19 Compounds with AC50 equal or less than 10 uM are considered active; format: functional
[7] = target: T1, Heat shock factor protein 1; assay: HSF1 potentiators in luciferase reporter cells, confirmation, cell-based, NIH3T3, luminescence, dose retest (AID 435004); format: functional;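 note: stress induced by proteasome inhibitor MG132 added 30 min after compound; luciferase reporter driven by HSF1 response element in NIH3T3 cells; actives raise luminescence as potentiators of the MG132 stress response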

Chain of Cytochrome P450 2C19 (P33261 whole entry): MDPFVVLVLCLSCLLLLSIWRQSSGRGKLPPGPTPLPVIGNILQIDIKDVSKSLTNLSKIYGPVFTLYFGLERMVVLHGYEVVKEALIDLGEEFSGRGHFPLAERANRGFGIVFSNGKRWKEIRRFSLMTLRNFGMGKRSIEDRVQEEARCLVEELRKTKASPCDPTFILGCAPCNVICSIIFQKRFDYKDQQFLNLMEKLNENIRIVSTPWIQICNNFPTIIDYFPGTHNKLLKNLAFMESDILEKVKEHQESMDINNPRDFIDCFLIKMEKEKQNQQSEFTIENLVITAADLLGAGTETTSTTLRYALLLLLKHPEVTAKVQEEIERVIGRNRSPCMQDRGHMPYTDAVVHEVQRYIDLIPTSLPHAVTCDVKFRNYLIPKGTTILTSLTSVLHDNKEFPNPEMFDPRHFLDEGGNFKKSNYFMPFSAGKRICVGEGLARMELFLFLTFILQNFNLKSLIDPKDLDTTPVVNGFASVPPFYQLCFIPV
Chain of Cytochrome P450 3A4 (P08684 whole entry): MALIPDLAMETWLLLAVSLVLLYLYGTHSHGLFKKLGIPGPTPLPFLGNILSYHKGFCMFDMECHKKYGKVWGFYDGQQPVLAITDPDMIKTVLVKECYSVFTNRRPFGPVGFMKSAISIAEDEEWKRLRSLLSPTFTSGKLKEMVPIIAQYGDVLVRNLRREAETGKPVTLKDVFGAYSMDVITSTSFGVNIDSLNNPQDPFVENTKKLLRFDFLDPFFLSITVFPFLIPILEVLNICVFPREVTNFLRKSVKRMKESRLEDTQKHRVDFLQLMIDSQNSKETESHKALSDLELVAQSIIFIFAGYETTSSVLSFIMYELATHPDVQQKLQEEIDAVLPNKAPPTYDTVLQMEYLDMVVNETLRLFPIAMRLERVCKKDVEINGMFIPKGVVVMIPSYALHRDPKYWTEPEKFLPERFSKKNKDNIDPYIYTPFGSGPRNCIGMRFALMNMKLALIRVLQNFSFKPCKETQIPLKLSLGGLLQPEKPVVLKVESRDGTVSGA

## Nc1nc(NC(=O)C(Cl)(Cl)Cl)nn1-c1ccccc1
[1]
  EC50: > 195 µM (not active)

## Cc1ccc(S(=O)(=O)c2c(C)cc(C)nc2Cl)c(C)c1
[2]
  EC50: > 60 µM (not active)
[3]
  EC50: 2 µM (active)

## COc1cccc2cc(C(=O)NCc3ccco3)/c(=N/c3ccc(C(=O)O)cc3)oc12
[1]
  EC50: > 195 µM (not active)

## CC(=O)c1[nH]c(C)c(C(C)=O)c1C
Cytochrome P450 3A4
  AC50: 20 µM (inconclusive)

## S=C(Nc1ccc(Br)cc1Cl)NC1CCN(Cc2ccccc2)CC1
[2]
  EC50: > 30 µM (not active)
[3]
  EC50: 0.228 µM (active)

## COC(=O)C1=C(C)N(CCc2c[nH]c3ccc(OC)cc23)C(=O)C1
[4]
  EC50: > 120 µM (not active)
[5]
  EC50: > 120 µM (not active)
[6]
  EC50: > 120 µM (not active)

## N#CCn1c2ccccc2c2nc3ccccc3nc21
[4]
  EC50: > 120 µM (not active)
[5]
  EC50: > 120 µM (not active)
[6]
  EC50: 23.3 µM (active)

## CCn1c(SCC(=O)Nc2nc(C)c(C)s2)nnc1-c1cccnc1
[4]
  EC50: > 120 µM (not active)
[5]
  EC50: > 120 µM (not active)
[6]
  EC50: > 120 µM (not active)

## Cc1ccc(N(C)C(=O)CN(C)S(=O)(=O)c2ccc3c(c2)n(C)c(=O)c(=O)n3C)cc1
[1]
  EC50: > 195 µM (not active)

## CCc1cc2c(nc1CC)CCN(CC/C(C)=N/OC[C@@H](C)[C@H](OCc1ccccc1)C(C)C)C2
Cytochrome P450 3A4
  AC50: 3.98 µM (inconclusive)

## O=C(Nc1c2c(nn1-c1ccc(F)cc1)CS(=O)(=O)C2)C12CC3CC(CC(C3)C1)C2
Cytochrome P450 2C19
  AC50: inconclusive

## Cc1cc(C)n(Cc2ccc(Cl)cc2Cl)c(=O)c1S(=O)(=O)c1ccccc1
[7]
  EC50: > 260 µM (inactive)

## Oc1nc(CN2CCN(C/C=C/c3ccccc3)CC2)nc2cc(Cl)ccc12
[2]
  EC50: > 60 µM (not active)
[3]
  EC50: 0.405 µM (active)

## CO[C@@H]1COC(=O)CCC[C@@H](C)[C@H](OC)COC(=O)[C@H](Cc2ccccc2)NC(=O)C/C=C\[C@H]1C
Cytochrome P450 2C19; read-out: AC50
  AC50: 0.00251 µM (inconclusive)

## CC(C)(C)OC(=O)N1CCN(C(=O)c2[nH]cnc2C(=O)NCC(=O)OCc2ccccc2)CC1
[1]
  EC50: > 195 µM (not active)

## CCOc1c(C)cc(S(=O)(=O)NCc2cccnc2)c(C)c1C
[1]
  EC50: > 195 µM (not active)

## CN1CC[C@@]2(CCCN(C(=O)c3cccn3C)C2)C1
Cytochrome P450 3A4
  AC50: 7.94 µM (inconclusive)

## Cc1ccc(-c2nnn(CC(=O)N(Cc3cccs3)C(C(=O)NC3CCCC3)c3ccncc3)n2)cc1 (configuration not stated)
[1]
  EC50: > 195 µM (not active)

## CC1CCCC(C)N1CC(O)COCC1COc2ccccc2O1.Cl (configuration not stated)
Cytochrome P450 2C19
  AC50: inconclusive

## Cc1cc(-c2ccc(C(C)C)c(S(=O)(=O)NCCN3CCC(C)CC3)c2)on1
[7]
  EC50: > 260 µM (inactive)

## O=C(Cc1ccccc1)NCCSCc1ccc(Cl)cc1
Cytochrome P450 3A4
  AC50: 14.1 µM (inconclusive)

## COc1ccc(C)cc1S(=O)(=O)Nc1cc2c3c(c1)CCC(=O)N3CCC2
[1]
  EC50: > 195 µM (not active)

## COc1ccc(C(=O)NCc2nnc(SCC(=O)N3CCC(C)CC3)o2)cc1OC
[1]
  EC50: > 195 µM (not active)

## Cc1ccc(N2C(=O)c3ccccc3NC2C(C)Cc2ccc3c(c2)OCO3)cc1 (configuration not stated)
[2]
  EC50: > 30 µM (not active)
[3]
  EC50: 2.61 µM (active)

## COCCNC(=O)c1cccc(OC2CCN(Cc3ccc(Cl)c(F)c3)CC2)c1
[7]
  EC50: > 260 µM (inactive)

## CCOC(=O)c1c(-c2ccc(C)cc2)cn2ccccc12
[7]
  EC50: > 260 µM (inactive)

## Nc1cc(Cl)ccc1Oc1ccccc1
Cytochrome P450 3A4
  AC50: 22.4 µM (inconclusive)

## COc1ccc(CN(CC2CCC(C(=O)O)CC2)C(=S)Nc2ccc(C)c(Cl)c2)cc1 (configuration not stated)
[2]
  EC50: > 60 µM (not active)
[3]
  EC50: > 60 µM (not active)

## N=C(N)NS(=O)(=O)c1ccc(NC(=S)NC(=O)c2ccc(Br)cc2)cc1
[7]
  EC50: > 260 µM (inactive)

## CCC(=O)N1CCN(c2ccc(NC(=O)COc3ccc(C)cc3C)cc2)CC1
[7]
  EC50: > 260 µM (inactive)

## COc1ccc(/C=C2\CCCC3C2=NN(C(=O)COC(=O)CNC(=O)c2ccccc2)C3c2ccc(OC)cc2)cc1 (configuration not stated)
[1]
  EC50: > 195 µM (not active)
